The values that follow come from PubChem BioAssay (NCI).

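Growth conditions: 96-well plates. Treatment: test compound, 48 hours, 5 concentrations. Analysis: linear interpolation between bracketing concentrations; unreached endpoints set to highest concentration. GI50 = concentration required for 50% inhibition of growth. TGI marks complete inhibition of growth.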

Test systems include NCI-H226 lung; M14 melanoma; U251 CNS; EKVX NSCLC; COLO 205 colon; KM12 colon; SN12C renal; MALME-3M melanoma.
Common to all, as to test: NCI-60 cell line screen, 48 h

For the compound `CCOC(=O)C1=C(C)NC(=O)NC1c1coc2cc(C)cc(C)c2c1=O` (stereo unspecified), the TGI in the test with NCI-H226 lung, with M14 melanoma, in the test on U251 CNS, in the test with EKVX NSCLC, in the test on COLO 205 colon and in the test with KM12 colon was over 100 µM each time. The TGI in the test with SN12C renal and in the test on MALME-3M melanoma was over 100 µM throughout.

With `Clc1ccc(-c2nn3ncccc3c2-c2ccnc(Nc3ccccc3)n2)cc1`, the GI50 in the test on NCI-H226 lung was over 13.1 µM; with M14 melanoma, over 14.8 µM; in the test with U251 CNS it was 14.9 µM; with EKVX NSCLC it was 2.94 µM; in the test with COLO 205 colon, over 18.7 µM; in the test with KM12 colon, 9.03 µM. In addition, the values for the GI50 in the test with SN12C renal and in the test with MALME-3M melanoma were 8.29 µM and over 20.6 µM, respectively. The TGI in the test with NCI-H226 lung, in the test on M14 melanoma, in the test on U251 CNS, in the test on EKVX NSCLC, in the test on COLO 205 colon and in the test on KM12 colon was over 25 µM in each case. Also, the TGI with SN12C renal and in the test with MALME-3M melanoma was over 25 µM throughout.

As for `CCCN(CCC)CCCNC(=O)c1cc2c(-c3ccc(OC)c(OC)c3)nn(C)c2s1`, the GI50 in the test with NCI-H226 lung was over 100 µM; in the test with M14 melanoma it was 17.2 µM; in the test with U251 CNS, 25.3 µM; in the test with EKVX NSCLC, 71.7 µM; in the test on COLO 205 colon it was 13.6 µM; with KM12 colon it was 26 µM. Moreover, the GI50 was 54.9 µM in the test on SN12C renal and 18.4 µM in the test with MALME-3M melanoma. Further, the TGI in the test with NCI-H226 lung was over 100 µM; with M14 melanoma, 35 µM; in the test with U251 CNS, over 100 µM; with EKVX NSCLC it was over 100 µM; with COLO 205 colon, 30.3 µM; with KM12 colon, over 100 µM. In addition, the TGI with SN12C renal is over 100 µM; with MALME-3M melanoma, 35.8 µM.

In the case of `O=C(c1cccs1)c1c(C(F)(F)F)n([O-])c2ccc(F)cc2[n+]1=O`, the GI50 with NCI-H226 lung is 1.76 µM; in the test with M14 melanoma, 1.54 µM; in the test on U251 CNS, 1.31 µM; in the test on EKVX NSCLC it was 1.69 µM; in the test with COLO 205 colon, 0.456 µM; in the test on KM12 colon it was 0.163 µM. For the same compound, the GI50 is 1.58 µM with SN12C renal and 0.669 µM in the test on MALME-3M melanoma. In addition, the TGI stood at 3.39 µM with NCI-H226 lung; 3 µM with M14 melanoma; 2.6 µM in the test on U251 CNS; 3.7 µM in the test with EKVX NSCLC; 1.62 µM in the test with COLO 205 colon; 0.35 µM in the test on KM12 colon. Besides, the TGI in the test on SN12C renal was 4.33 µM; with MALME-3M melanoma, 2.25 µM.

As for `Cc1nc(/N=C(\N)NC(=O)Nc2ccccc2Cl)sc1C`, the GI50 is 1.15 µM with NCI-H226 lung; 0.314 µM in the test with M14 melanoma; 0.439 µM in the test with U251 CNS; 0.626 µM in the test on EKVX NSCLC; 0.474 µM in the test with COLO 205 colon; 0.405 µM in the test with KM12 colon. The GI50 is 0.739 µM in the test with SN12C renal and 0.643 µM in the test on MALME-3M melanoma. In addition, the TGI in the test with NCI-H226 lung was 14.9 µM; with M14 melanoma it was 18.7 µM; in the test with U251 CNS it was 6.13 µM; with EKVX NSCLC, over 100 µM; in the test with COLO 205 colon it was 4.57 µM; in the test on KM12 colon, over 100 µM. Further, the TGI was over 100 µM in the test with SN12C renal and 4.79 µM in the test with MALME-3M melanoma.

For the compound `CC1=C([Se]CC(OC(=O)[C@@H](CO)NC(=O)OC(C)(C)C)C(=O)NC(C)(C)C)C(=O)c2ccccc2C1=O` (stereo partly specified), the GI50 in the test on NCI-H226 lung was 1.96 µM; with M14 melanoma it was 1.66 µM; with U251 CNS it was 0.986 µM; in the test with EKVX NSCLC, 1.76 µM; with COLO 205 colon, 1.83 µM; in the test on KM12 colon, 1.5 µM. Further, the GI50 in the test with SN12C renal was 1.85 µM; with MALME-3M melanoma, 2.04 µM. The TGI in the test on NCI-H226 lung is 4.21 µM; in the test on M14 melanoma, 3.04 µM; in the test with U251 CNS, 2.56 µM; with EKVX NSCLC, 3.71 µM; with COLO 205 colon it was 3.3 µM; in the test with KM12 colon it was 2.89 µM. Besides, the figures for the TGI in the test with SN12C renal and in the test on MALME-3M melanoma were 3.41 µM and 3.77 µM, respectively.

For the compound `C[C@H]1CC[C@@H]2[C@@H](C)[C@H]3[C@H](C[C@H]4[C@@H]5CC=C6C[C@@H](O)CC[C@]6(C)[C@H]5C[C@H](O)[C@]34C)N2C1`, the TGI in the test on NCI-H226 lung, with M14 melanoma, in the test with U251 CNS, in the test with EKVX NSCLC, in the test on COLO 205 colon and in the test on KM12 colon was over 100 µM in each case. The TGI in the test on SN12C renal and with MALME-3M melanoma was over 100 µM throughout.

Take `N#Cc1cccc(NC(=O)c2oc3ccccc3c2-c2cnn(-c3ccccc3)c2)c1`: the GI50 in the test with NCI-H226 lung was over 500 µM; in the test on M14 melanoma, over 500 µM; in the test with U251 CNS, 256 µM; with EKVX NSCLC, over 500 µM; in the test with COLO 205 colon, over 500 µM; in the test with KM12 colon it was over 500 µM. Further, the GI50 with SN12C renal was over 500 µM; in the test with MALME-3M melanoma, 278 µM. Besides, the TGI in the test with NCI-H226 lung, in the test with M14 melanoma, with U251 CNS, in the test on EKVX NSCLC, with COLO 205 colon and in the test with KM12 colon was over 500 µM each time. In addition, the TGI in the test with SN12C renal and in the test on MALME-3M melanoma was over 500 µM throughout.

As for `C[C@H]1CC(=O)C2=CCCC3(SCCCS3)[C@@H]2[C@H]1CO`, the TGI in the test on NCI-H226 lung, in the test with M14 melanoma, in the test on U251 CNS, in the test on EKVX NSCLC, with COLO 205 colon and in the test on KM12 colon was over 100 µM each time. Besides, the TGI in the test with SN12C renal and with MALME-3M melanoma was over 100 µM in each case.

As for `COc1cc2c3c(n(C)c(=O)c2cc1OC)-c1cc2c(cc1/C3=C\CCCBr)OCO2`, the GI50 with NCI-H226 lung was 77.5 µM; in the test with M14 melanoma it was over 96.6 µM; in the test with U251 CNS, 13.2 µM; with EKVX NSCLC it was 15.6 µM; in the test with COLO 205 colon, 18.8 µM; in the test with KM12 colon, over 100 µM. Also, the GI50 is over 100 µM with SN12C renal and 7.2 µM in the test with MALME-3M melanoma. The TGI in the test on NCI-H226 lung is over 100 µM; in the test on M14 melanoma, over 100 µM; in the test on U251 CNS it was over 60.3 µM; in the test with EKVX NSCLC, over 62.5 µM; with COLO 205 colon, 55.8 µM; in the test with KM12 colon, over 100 µM. Also, the TGI with SN12C renal was over 100 µM; with MALME-3M melanoma it was over 45.4 µM.
